The results in this text go back to patent publication US12458021B2, “Microbiocidal derivatives” (SYNGENTA CROP PROTECTION AG, priority 2019, dated 2025).

Test [1] has as its system Blumeria graminis f. sp. tritici (Erysiphe graminis f. sp. tritici). Description: Blumeria graminis f. sp. tritici / wheat / leaf disc preventative (powdery mildew on wheat). Type of test: in vivo. As to conditions: foliar, wheat leaf segments cv. Kanzler, inoculated 1 day after application, assessed 6-8 days after application, read-out: control of Blumeria graminis f. sp. tritici (percent disease control compared to untreated). An excerpt: Example B4: Blumeria graminis f. sp. tritici (Erysiphe graminis f. sp. tritici)/Wheat/Leaf Disc Preventative (Powdery Mildew on Wheat) Wheat leaf segments cv. Kanzler are placed on agar in a multiwell plate (24-well format) and sprayed with the formulated test compound diluted in water. The leaf disks are inoculated by shaking powdery mildew infected plants above the test plates 1 day after application. […] […]-192.

The test system of test [2] is Puccinia recondita f. sp. tritici. Put plainly: Puccinia recondita f. sp. tritici / wheat / leaf disc preventative (brown rust). Conditions: foliar, wheat leaf segments cv. Kanzler, inoculated 1 day after application, assessed 7-9 days after application, read-out: control of Puccinia recondita f. sp. tritici, preventative (percent disease control compared to untreated). It counts as in vivo. As for the experimental part: Example B11: Puccinia recondita f. sp. tritici/Wheat/Leaf Disc Preventative (Brown Rust) Wheat leaf segments cv. Kanzler are placed on agar in multiwell plates (24-well format) and sprayed with the formulated test compound diluted in water. The leaf disks are inoculated with a spore suspension of the fungus 1 day after application. The inoculated leaf segments are incubated at 19° C. and 75% rh under a light regime of 12 h light/12 h darkness in a climate cabinet and the activity of a compound is assessed as percent disease control compared to untreated when an appropriate level of disease damage appears in untreated check leaf segments (7-9 days after application). […] […]-190.

Test [3] has as its system Glomerella lagenarium (Colletotrichum lagenarium). Description: Glomerella lagenarium (Colletotrichum lagenarium) / liquid culture (anthracnose). Type of test: cell-based. Conditions: Colletotrichum orbiculare, PDB potato dextrose broth, 24° C., 3-4 days after application, read-out: control of Glomerella lagenarium (inhibition of growth, photometric). A digest of the protocol: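 Conidia from cryogenic storage suspended in potato dextrose broth and added to DMSO compound solution in plates. Incubated at 24° C; growth inhibition read photometrically 3-4 days after application.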

For test [4], the system named is Mycosphaerella graminicola (Septoria tritici). Put plainly: Mycosphaerella graminicola (Septoria tritici) / liquid culture (Septoria blotch). It counts as cell-based. As to conditions: Zymoseptoria tritici, PDB potato dextrose broth, 24° C., 4-5 days after application, read-out: control of Mycosphaerella graminicola (inhibition of growth, photometric). In outline:
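Conidia from cryogenic storage were mixed into potato dextrose broth and added to test compound in DMSO. Plates were incubated at 24° C, and growth inhibition was read photometrically 4-5 days after application.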

In test [5] the test system is Monographella nivalis (Microdochium nivale). Description: Monographella nivalis (Microdochium nivale) / liquid culture (foot rot cereals). Type of test: cell-based. Conditions: PDB potato dextrose broth, 24° C., 4-5 days after application, read-out: control of Monographella nivalis (inhibition of growth, photometric). In outline:
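Cryostored M. nivalis conidia mixed into potato dextrose broth and added to 96-well plates holding test compound in DMSO. Incubated at 24° C; growth inhibition read photometrically 4-5 days after application.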

For test [6], the system named is Magnaporthe grisea (Pyricularia oryzae). Put plainly: whole plant or invertebrate. Type of test: in vivo. As to conditions: foliar, read-out: control of Magnaporthe grisea (percent disease control compared to untreated).

As for `COc1ccc(Nc2cc(F)nc(F)c2)nc1C(=O)NC(C)C(C)C` (centres unmarked) [Compound P-167, 6-[(2,6-difluoro-4-pyridyl)amino]-N-(1,2-dimethylpropyl)-3-methoxy-pyridine-2-carboxamide], the pest or weed control at 200 ppm in test [1] and in test [2] was not below 80% each time.

By inhibition is commonly meant the percentage by which the read-out fell short of the control. As to `CCc1cccc(Nc2ccc(OC)c(C(=O)NCC(C)(C)C)n2)c1` [Compound P-137, N-(2,2-dimethylpropyl)-6-(3-ethylanilino)-3-methoxy-pyridine-2-carboxamide], in test [2], the pest or weed control at 200 ppm was not below 80%. The inhibition at 20 ppm in test [3] is not below 80%.

As to `COc1ccc(Nc2cc(F)nc(F)c2)nc1C(=O)NCCc1ccccc1` [Compound P-31, 6-[(2,6-difluoro-4-pyridyl)amino]-3-methoxy-N-(2-phenylethyl)pyridine-2-carboxamide], in test [2], the pest or weed control at 200 ppm is not below 80%.

On to `CC1(C)CCC1NC(=O)c1nc(Nc2cc(F)nc(F)c2)ccc1O` (centres unmarked) [Compound P-1, 6-[(2,6-difluoro-4-pyridyl)amino]-N-(2,2-dimethylcyclobutyl)-3-hydroxy-pyridine-2-carboxamide], for which the inhibition at 20 ppm in test [4], in test [3] and in test [5] was not below 80% each time. Moreover, the pest or weed control at 200 ppm in test [2] was not below 80%.

In the case of `CCOc1ccc(Nc2cc(F)nc(F)c2)nc1C(=O)NC(C)(C)C` [Compound P-95, N-tert-butyl-6-[(2,6-difluoro-4-pyridyl)amino]-3-ethoxy-pyridine-2-carboxamide], the pest or weed control at 200 ppm in test [1] and in test [6] was not below 80% throughout. The inhibition at 20 ppm in test [3] and in test [5] was not below 80% throughout.

For `COc1ccc(Nc2cc(F)nc(F)c2)nc1C(=O)NC(C)(C)C(C)(C)C` [Compound P-174, 6-[(2,6-difluoro-4-pyridyl)amino]-3-methoxy-N-(1,1,2,2-tetramethylpropyl)pyridine-2-carboxamide], the inhibition at 20 ppm in test [4] was not below 80%. For the same molecule, the pest or weed control at 200 ppm in test [2] is not below 80%.

`COc1ccc(Nc2cc(F)nc(F)c2)nc1C(=O)NC(C)C(C)(C)C` (centres unmarked) [Compound P-169, 6-[(2,6-difluoro-4-pyridyl)amino]-3-methoxy-N-(1,2,2-trimethylpropyl)pyridine-2-carboxamide]: the pest or weed control at 200 ppm in test [1] and in test [2] was not below 80% each time.

As for `COc1ccc(N(C#N)c2cc(F)cc(F)c2)nc1C(=O)NC1CCC1(C)C` (centres unmarked) [Compound P-20, 6-(N-cyano-3,5-difluoro-anilino)-N-(2,2-dimethylcyclobutyl)-3-methoxy-pyridine-2-carboxamide], the pest or weed control at 200 ppm in test [1] and in test [6] was not below 80% in each case. Further, the inhibition at 20 ppm in test [4] and in test [3] was not below 80% in each case.

Regarding `COc1ccc(Nc2cc(F)nc(F)c2)nc1C(=O)NC1(C(C)C)CCC1` [Compound P-181, 6-[(2,6-difluoro-4-pyridyl)amino]-N-(1-isopropylcyclobutyl)-3-methoxy-pyridine-2-carboxamide], the pest or weed control at 200 ppm in test [1] and in test [2] was not below 80% throughout. Moreover, the inhibition at 20 ppm in test [4] and in test [5] was not below 80% each time.

As for `COc1ccc(Nc2cc(F)nc(F)c2)nc1C(=O)NC1(c2cccc(Cl)n2)CCC1` [Compound P-184, N-[1-(6-chloro-2-pyridyl)cyclobutyl]-6-[(2,6-difluoro-4-pyridyl)amino]-3-methoxy-pyridine-2-carboxamide], in test [2], the pest or weed control at 200 ppm was not below 80%.

In the case of `COc1ccc(Nc2cnsc2)nc1C(=O)NCc1cnc(C(F)(F)F)nc1` [Compound P-80, 6-(isothiazol-4-ylamino)-3-methoxy-N-[[2-(trifluoromethyl)pyrimidin-5-yl]methyl]pyridine-2-carboxamide], in test [2], the pest or weed control at 200 ppm is not below 80%.

In the case of `COc1ccc(Nc2cc(F)nc(F)c2)nc1C(=O)NC1(C2CCC2)CCC1` [Compound P-182, N-(1-cyclobutylcyclobutyl)-6-[(2,6-difluoro-4-pyridyl)amino]-3-methoxy-pyridine-2-carboxamide], the pest or weed control at 200 ppm in test [1] and in test [2] was not below 80% each time.

Turning to `CC(C)(C)CNC(=O)c1cccc(Nc2cc(F)nc(F)c2)n1` [Compound P-113, 6-[(2,6-difluoro-4-pyridyl)amino]-N-(2,2-dimethylpropyl)pyridine-2-carboxamide], the pest or weed control at 200 ppm in test [1] and in test [6] was not below 80% throughout. The inhibition at 20 ppm in test [4], in test [3] and in test [5] was not below 80% each time.

For the molecule `COc1ccc(Nc2cc(F)cc(F)c2)nc1C(=O)NC1CC(c2ccc(Cl)cc2)C1` (centres unmarked) [Compound P-187, N-[3-(4-chlorophenyl)cyclobutyl]-6-(3,5-difluoroanilino)-3-methoxy-pyridine-2-carboxamide], the inhibition at 20 ppm in test [4], in test [3] and in test [5] was not below 80% in each case. The pest or weed control at 200 ppm in test [2] is not below 80%.

`COc1ccc(Nc2cc(F)nc(F)c2)nc1C(=O)NC1(C)CC1` [Compound P-92, 6-[(2,6-difluoro-4-pyridyl)amino]-3-methoxy-N-(1-methylcyclopropyl)pyridine-2-carboxamide]: the pest or weed control at 200 ppm in test [1] and in test [2] was not below 80% in each case.

Take `COc1ccc(Nc2cc(F)nc(F)c2)nc1C(=O)NC1CC(c2ccc(Cl)cc2)C1` (centres unmarked) [Compound P-188]: in test [2], the pest or weed control at 200 ppm was not below 80%.

Turning to `COc1ccc(Nc2cc(C)cc(C#N)c2)nc1C(=O)NCC(C)(C)C` [Compound P-143, 6-(3-cyano-5-methyl-anilino)-N-(2,2-dimethylpropyl)-3-methoxy-pyridine-2-carboxamide], in test [2], the pest or weed control at 200 ppm was not below 80%.

Regarding `COc1ccc(Nc2cc(F)nc(F)c2)nc1C(=O)NCC1(C)CCOC2(CCC2)C1` (centres unmarked) [Compound P-52, 6-[(2,6-difluoro-4-pyridyl)amino]-3-methoxy-N-[(8-methyl-5-oxaspiro[3.5]nonan-8-yl)methyl]pyridine-2-carboxamide], the pest or weed control at 200 ppm in test [1] and in test [6] was not below 80% each time. In test [3], the inhibition at 20 ppm is not below 80%.

In the case of `CCC1(NC(=O)c2nc(Nc3cc(F)nc(F)c3)ccc2OC)CCC1` [Compound P-183, 6-[(2,6-difluoro-4-pyridyl)amino]-N-(1-ethylcyclobutyl)-3-methoxy-pyridine-2-carboxamide], the pest or weed control at 200 ppm in test [1] and in test [2] was not below 80% in each case. For the same molecule, the inhibition at 20 ppm in test [4] and in test [5] was not below 80% throughout.

`COc1ccc(Nc2cc(F)c(Cl)c(F)c2)nc1C(=O)NC(C)(C)C` [Compound P-153, N-tert-butyl-6-(4-chloro-3,5-difluoro-anilino)-3-methoxy-pyridine-2-carboxamide]: the pest or weed control at 200 ppm in test [1] and in test [6] was not below 80% in each case. Moreover, the inhibition at 20 ppm in test [4], in test [3] and in test [5] was not below 80% throughout.

For `COc1ccc(Nc2cncc(F)c2)nc1C(=O)NC1CCC1(C)C` (centres unmarked) [Compound P-104, N-(2,2-dimethylcyclobutyl)-6-[(5-fluoro-3-pyridyl)amino]-3-methoxy-pyridine-2-carboxamide], the pest or weed control at 200 ppm in test [1] and in test [6] was not below 80% each time. For the same molecule, the inhibition at 20 ppm in test [4], in test [3] and in test [5] was not below 80% throughout.

Consider `COc1ccc(Nc2cc(F)cc(F)c2)nc1C(=O)NC1(C)COC1` [Compound P-128, 6-(3,5-difluoroanilino)-3-methoxy-N-(3-methyloxetan-3-yl)pyridine-2-carboxamide], for which the pest or weed control at 200 ppm in test [1] and in test [6] was not below 80% each time. Also, the inhibition at 20 ppm in test [4] and in test [3] was not below 80% each time.

`COc1ccc(Nc2ccnc(F)c2)nc1C(=O)NCC(C)(C)C` [Compound P-136, N-(2,2-dimethylpropyl)-6-[(2-fluoro-4-pyridyl)amino]-3-methoxy-pyridine-2-carboxamide]: the pest or weed control at 200 ppm in test [2] is not below 80%. Also, the inhibition at 20 ppm in test [3] was not below 80%.
